Source: US11247965B2 (VenatoRx Pharmaceuticals, Inc., priority 2017, dated 2022)
pEC50: −log10 of the molar value.

Tests used:
[1] = system: HBV replication in HepAD38 cells; assay: Anti-HBV activity in HepAD38 cells, extracellular HBV DNA by QPCR; format: cell-based, HBV (genotype D, serotype ayw); conditions: Hepatitis B virus, HePAD38, 168 h, read-out: Anti-HBV EC50, HepAD38 cells, extracellular HBV DNA by QPCR, 7 days of incubation
In short: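 HepAD38 cells (HepG2 with tet-repressible HBV genotype D genome) seeded overnight, tetracycline removed, then treated 7 days with compounds (half-log dilutions, 30 μM–10 nM; 1:200 from DMSO). Supernatant HBV DNA quantified by QPCR against standard curve; % inhibition vs vehicle, EC50 by 4-parameter fit.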

[2] = In vitro cytotoxicity, MTT cell viability assay in HepG2 cells; format: cell-based; conditions: human, Cytotoxicity CC50
In short: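 Viability measured by MTT conversion, absorbance at 492 nm, as percent of vehicle-treated wells. Compounds spanned 30 μM to 1.0 nM in half-log steps over a 7-day exposure of parental HepG2 cells; CC50 derived by 4-parameter curve fit.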

Row | Structure (SMILES) | pEC50 [1] | CC50 at 7 days [2] [µM]
1 | O=C(Nc1ccc(F)c(Br)c1)c1ccc(F)c(C(F)(F)C(=O)N2[C@@H]3CC[C@H]2C[C@@H](O)C3)c1 [Example 176, N-(3-bromo-4-fluorophenyl)-3-(1,1-difluoro-2-((1R,3r,5S)-3-hydroxy-8-azabicyclo[3.2.1]octan-8-yl)-2-oxoethyl)-4-fluorobenzamide] | > 5.30 | 5 to 30
2 | N#Cc1cc(NC(=O)c2ccc(F)c(C(F)(F)C(=O)N3CCC(O)C(F)(F)C3)c2)ccc1F (stereo not shown) [Example 177, N-(3-cyano-4-fluorophenyl)-3-(2-(3,3-difluoro-4-hydroxypiperidin-1-yl)-1,1-difluoro-2-oxoethyl)-4-fluorobenzamide] | > 5.30 | 5 to 30
3 | Cn1cc(NC(=O)c2ccc(F)c(C(F)(F)C(=O)N3CCC(O)C(F)(F)C3)c2)cn1 (stereo not shown) [Example 179, 3-(2-(3,3-difluoro-4-hydroxypiperidin-1-yl)-1,1-difluoro-2-oxoethyl)-4-fluoro-N-(1-methyl-1H-pyrazol-4-yl)benzamide] | 4.52 to 5.30 | > 30
4 | Cn1cc(NC(=O)c2ccc(F)c(C(F)(F)C(=O)N3[C@@H]4CC[C@H]3C[C@@H](O)C4)c2)cn1 [Example 180, 3-(1,1-difluoro-2-((1R,3r,5S)-3-hydroxy-8-azabicyclo[3.2.1]octan-8-yl)-2-oxoethyl)-4-fluoro-N-(1-methyl-1H-pyrazol-4-yl)benzamide] | 4.52 to 5.30 | > 30
5 | Cn1cc(NC(=O)c2ccc(F)c(C(F)(F)C(=O)N3[C@@H]4CC[C@H]3C[C@H](O)C4)c2)cn1 [Example 181, 3-(1,1-difluoro-2-((1R,3s,5S)-3-hydroxy-8-azabicyclo[3.2.1]octan-8-yl)-2-oxoethyl)-4-fluoro-N-(1-methyl-1H-pyrazol-4-yl)benzamide] | 4.52 to 5.30 | > 30
6 | Cn1cc(NC(=O)c2ccc(F)c(C(F)(F)C(=O)N3CCC(O)(CO)CC3)c2)cn1 [Example 182, 3-(1,1-difluoro-2-(4-hydroxy-4-(hydroxymethyl)piperidin-1-yl)-2-oxoethyl)-4-fluoro-N-(1-methyl-1H-pyrazol-4-yl)benzamide] | 4.52 to 5.30 | > 30
7 | CC(C)n1cc(NC(=O)c2ccc(F)c(C(F)(F)C(=O)N3CCC(O)C(F)(F)C3)c2)cn1 (stereo not shown) [Example 183, 3-(2-(3,3-difluoro-4-hydroxypiperidin-1-yl)-1,1-difluoro-2-oxoethyl)-4-fluoro-N-(1-isopropyl-1H-pyrazol-4-yl)benzamide] | 4.52 to 5.30 | > 30
8 | CC(C)n1cc(NC(=O)c2ccc(F)c(C(F)(F)C(=O)N3[C@@H]4CC[C@H]3C[C@@H](O)C4)c2)cn1 [Example 184, 3-(1,1-difluoro-2-((1R,3r,5S)-3-hydroxy-8-azabicyclo[3.2.1]octan-8-yl)-2-oxoethyl)-4-fluoro-N-(1-isopropyl-1H-pyrazol-4-yl)benzamide] | 4.52 to 5.30 | > 30
9 | CC(C)n1cc(NC(=O)c2ccc(F)c(C(F)(F)C(=O)N3[C@@H]4CC[C@H]3C[C@H](O)C4)c2)cn1 [Example 185, 3-(1,1-difluoro-2-((1R,3s,5S)-3-hydroxy-8-azabicyclo[3.2.1]octan-8-yl)-2-oxoethyl)-4-fluoro-N-(1-isopropyl-1H-pyrazol-4-yl)benzamide] | 4.52 to 5.30 | > 30
10 | CC(C)n1cc(NC(=O)c2ccc(F)c(C(F)(F)C(=O)N3CCC(O)(CO)CC3)c2)cn1 [Example 186, 3-(1,1-difluoro-2-(4-hydroxy-4-(hydroxymethyl)piperidin-1-yl)-2-oxoethyl)-4-fluoro-N-(1-isopropyl-1H-pyrazol-4-yl)benzamide] | 4.52 to 5.30 | > 30
11 | O=C(Nc1cc(F)c(F)c(F)c1)c1ccc(F)c(C(F)(F)C(=O)N2CCC(O)C(F)(F)C2)c1 (stereo not shown) [Example 187, 3-(2-(3,3-difluoro-4-hydroxypiperidin-1-yl)-1,1-difluoro-2-oxoethyl)-4-fluoro-N-(3,4,5-trifluorophenyl)benzamide] | > 5.30 | 5 to 30
12 | O=C(Nc1cc(F)c(F)c(F)c1)c1ccc(F)c(C(F)(F)C(=O)N2[C@@H]3CC[C@H]2C[C@H](O)C3)c1 [Example 188, 3-(1,1-difluoro-2-((1R,3s,5S)-3-hydroxy-8-azabicyclo[3.2.1]octan-8-yl)-2-oxoethyl)-4-fluoro-N-(3,4,5-trifluorophenyl)benzamide] | > 5.30 | 5 to 30
13 | O=C(Nc1ccc(F)c(Br)c1)c1ccc(F)c(C(F)(F)C(=O)N2[C@@H]3CC[C@H]2C[C@H](O)C3)c1 [Example 189, N-(3-bromo-4-fluorophenyl)-3-(1,1-difluoro-2-((1R,3s,5S)-3-hydroxy-8-azabicyclo[3.2.1]octan-8-yl)-2-oxoethyl)-4-fluorobenzamide] | > 5.30 | 5 to 30
14 | O=C(Nc1ccc(F)c(Br)c1)c1ccc(F)c(C(F)(F)C(=O)N2CCC(O)(CO)CC2)c1 [Example 190, N-(3-bromo-4-fluorophenyl)-3-(1,1-difluoro-2-(4-hydroxy-4-(hydroxymethyl)piperidin-1-yl)-2-oxoethyl)-4-fluorobenzamide] | > 5.30 | 5 to 30
15 | N#Cc1cc(NC(=O)c2ccc(F)c(C(F)(F)C(=O)N3[C@@H]4CC[C@H]3C[C@H](O)C4)c2)ccc1F [Example 193, N-(3-cyano-4-fluorophenyl)-3-(1,1-difluoro-2-((1R,3s,5S)-3-hydroxy-8-azabicyclo[3.2.1]octan-8-yl)-2-oxoethyl)-4-fluorobenzamide] | > 5.30 | 5 to 30
16 | N#Cc1cc(NC(=O)c2ccc(F)c(C(F)(F)C(=O)N3CCC(O)(CO)CC3)c2)ccc1F [Example 194, N-(3-cyano-4-fluorophenyl)-3-(1,1-difluoro-2-(4-hydroxy-4-(hydroxymethyl)piperidin-1-yl)-2-oxoethyl)-4-fluorobenzamide] | > 5.30 | 5 to 30
17 | O=C(Nc1ccnc(Cl)c1)c1ccc(F)c(C(F)(F)C(=O)N2CCC(O)C(F)(F)C2)c1 (stereo not shown) [Example 195, N-(2-chloropyridin-4-yl)-3-(2-(3,3-difluoro-4-hydroxypiperidin-1-yl)-1,1-difluoro-2-oxoethyl)-4-fluorobenzamide] | > 5.30 | < 5
18 | O=C(Nc1ccnc(Cl)c1)c1ccc(F)c(C(F)(F)C(=O)N2[C@@H]3CC[C@H]2C[C@@H](O)C3)c1 [Example 196, N-(2-chloropyridin-4-yl)-3-(1,1-difluoro-2-((1R,3r,5S)-3-hydroxy-8-azabicyclo[3.2.1]octan-8-yl)-2-oxoethyl)-4-fluorobenzamide] | > 5.30 | < 5
19 | O=C(Nc1ccnc(Cl)c1)c1ccc(F)c(C(F)(F)C(=O)N2[C@@H]3CC[C@H]2C[C@H](O)C3)c1 [Example 197, N-(2-chloropyridin-4-yl)-3-(1,1-difluoro-2-((1R,3s,5S)-3-hydroxy-8-azabicyclo[3.2.1]octan-8-yl)-2-oxoethyl)-4-fluorobenzamide] | > 5.30 | < 5
20 | O=C(Nc1ccnc(Cl)c1)c1ccc(F)c(C(F)(F)C(=O)N2CCC(O)(CO)CC2)c1 [Example 198, N-(2-chloropyridin-4-yl)-3-(1,1-difluoro-2-(4-hydroxy-4-(hydroxymethyl)piperidin-1-yl)-2-oxoethyl)-4-fluorobenzamide] | > 5.30 | 5 to 30
21 | O=C(Nc1ccc(F)c(F)c1)c1ccc(F)c(C(F)(F)C(=O)N2[C@@H]3CC[C@H]2C[C@H](O)C3)c1 [Example 199, 3-(1,1-difluoro-2-((1R,3s,5S)-3-hydroxy-8-azabicyclo[3.2.1]octan-8-yl)-2-oxoethyl)-N-(3,4-difluorophenyl)-4-fluorobenzamide] | > 5.30 | 5 to 30
22 | Cc1cc(NC(=O)c2ccc(F)c(C(F)(F)C(=O)N3[C@@H]4CCC[C@H]3CC(=O)C4)c2)ccc1F [Example 200, 3-(1,1-difluoro-2-oxo-2-((1R,5S)-3-oxo-9-azabicyclo[3.3.1]nonan-9-yl)ethyl)-4-fluoro-N-(4-fluoro-3-methylphenyl)benzamide] | > 5.30 | 5 to 30
23 | Cc1cc(NC(=O)c2ccc(F)c(C(F)(F)C(=O)N3[C@@H]4COC[C@H]3CC(=O)C4)c2)ccc1F [Example 201, 3-(1,1-difluoro-2-oxo-2-((1R,5S)-7-oxo-3-oxa-9-azabicyclo[3.3.1]nonan-9-yl)ethyl)-4-fluoro-N-(4-fluoro-3-methylphenyl)benzamide] | > 5.30 | 5 to 30
24 | Cc1cc(NC(=O)c2ccc(F)c(C(F)(F)C(=O)N3[C@@H]4CCC[C@H]3CC(O)C4)c2)ccc1F (stereo partly drawn) [Example 202, 3-(1,1-difluoro-2-((1R,5S)-3-hydroxy-9-azabicyclo[3.3.1]nonan-9-yl)-2-oxoethyl)-4-fluoro-N-(4-fluoro-3-methylphenyl)benzamide] | > 5.30 | 5 to 30
25 | Cc1cc(NC(=O)c2ccc(F)c(C(F)(F)C(=O)N3[C@@H]4COC[C@H]3CC(O)C4)c2)ccc1F (stereo partly drawn) [Example 203, 3-(1,1-difluoro-2-((1R,5S)-7-hydroxy-3-oxa-9-azabicyclo[3.3.1]nonan-9-yl)-2-oxoethyl)-4-fluoro-N-(4-fluoro-3-methylphenyl)benzamide] | > 5.30 | 5 to 30
26 | Cc1cc(NC(=O)c2ccc(F)c(C(F)(F)C(=O)N3CCc4[nH]ncc4C3)c2)ccc1F [Example 204, 3-(1,1-difluoro-2-oxo-2-(1,4,6,7-tetrahydro-5H-pyrazolo[4,3-c]pyridin-5-yl)ethyl)-4-fluoro-N-(4-fluoro-3-methylphenyl)benzamide] | > 5.30 | 5 to 30
